# Reference: PubChem BioAssay (NCI)
#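 Protocol summary: plate cells (96-well), add compound at 5 concentrations, incubate 48 h, interpolate endpoints linearly. GI50: concentration for 50% inhibition of growth. TGI is the concentration that stops growth completely.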
# Columns and labels:
# Assay in all cases: NCI anticancer screen, dose series, 48 h
# [1] = system: SF-539 CNS
# [2] = system: A549 NSCLC
# [3] = system: UO-31 renal
# [4] = system: NCI-H23 lung
# [5] = system: EKVX NSCLC
# [6] = system: DU-145 prostate
# [7] = system: SK-OV-3 ovarian
# [8] = system: CCRF-CEM leukemia
# [9] = system: UACC-257 melanoma
# [10] = system: HCT-116 colon
# [11] = system: MALME-3M melanoma
# [12] = system: OVCAR-4 ovarian
# [13] = system: HS 578T breast
# [14] = system: OVCAR-5 ovarian
# [15] = system: MOLT-4 leukemia
# [16] = system: M14 melanoma
# [17] = system: NCI-H226 lung
# [18] = system: SF-268 CNS
# [19] = system: SK-MEL-28 melanoma
# [20] = system: UACC-62 melanoma
# [21] = system: RXF 393 renal
# [22] = system: K-562 leukemia
# [23] = system: PC-3 prostate
# [24] = system: BT-549 breast
# [25] = system: CAKI-1 renal
# [26] = system: MCF7 breast
# [27] = system: LOX IMVI melanoma
# [28] = system: SNB-19 CNS
# [29] = system: OVCAR-8 ovarian
# [30] = system: RPMI-8226 leukemia
# [31] = system: HCC-2998 colon
# [32] = system: HOP-92 NSCLC
# [33] = system: NCI/ADR-RES ovarian
# [34] = system: SNB-75 CNS
# [35] = system: HT29 colon
# [36] = system: NCI-H522 lung
# [37] = system: T-47D breast
# [38] = system: MDA-MB-231 breast
# [39] = system: U251 CNS
# [40] = system: SK-MEL-5 melanoma
# [41] = system: SW-620 colon
# [42] = system: TK-10 renal
# [43] = system: HOP-62 NSCLC
# [44] = system: OVCAR-3 ovarian
# [45] = system: SF-295 CNS
# [46] = system: IGROV1 ovarian
# [47] = system: ACHN renal
# [48] = system: NCI-H460 lung
# [49] = system: 786-0 renal
# [50] = system: SK-MEL-2 melanoma
# [51] = system: COLO 205 colon
# [52] = system: SN12C renal
# [53] = system: HCT-15 colon
# [54] = system: KM12 colon
# [55] = system: MDA-MB-435
# [56] = system: HL-60(TB) leukemia
compound,measurement,setting,value
COC(=O)C(C)NC(=O)c1ccccc1I(OS(=O)(=O)C(F)(F)F)c1ccccc1 (centres undefined),GI50,[1],22.7 µM
same,TGI,[1],45.6 µM
same,GI50,[2],30.6 µM
same,TGI,[2],> 75.2 µM
same,GI50,[3],21.3 µM
same,TGI,[3],42.1 µM
same,GI50,[4],18.5 µM
same,TGI,[4],> 53.3 µM
same,GI50,[5],25.6 µM
same,TGI,[5],88.9 µM
same,GI50,[6],25.6 µM
same,TGI,[6],> 71.1 µM
same,GI50,[7],23.6 µM
same,TGI,[7],56.5 µM
same,GI50,[8],20.3 µM
same,TGI,[8],60.4 µM
same,GI50,[9],42.6 µM
same,TGI,[9],> 100 µM
same,GI50,[10],30 µM
same,TGI,[10],> 100 µM
same,GI50,[11],14 µM
same,TGI,[11],29.5 µM
same,GI50,[12],19.1 µM
same,TGI,[12],50.9 µM
same,GI50,[13],19.6 µM
same,TGI,[13],47.9 µM
same,GI50,[14],16.9 µM
same,TGI,[14],36.7 µM
same,GI50,[15],42.3 µM
same,TGI,[15],> 85.1 µM
same,GI50,[16],1.23 µM
same,TGI,[16],32.8 µM
same,GI50,[17],17.1 µM
same,TGI,[17],36 µM
same,GI50,[18],17.6 µM
same,TGI,[18],53.2 µM
same,GI50,[19],18.7 µM
same,TGI,[19],45.3 µM
same,GI50,[20],17.3 µM
same,TGI,[20],35 µM
same,GI50,[21],17.7 µM
same,TGI,[21],41.6 µM
same,GI50,[22],> 42.4 µM
same,TGI,[22],> 63.7 µM
same,GI50,[23],22 µM
same,TGI,[23],53.1 µM
same,GI50,[24],23 µM
same,TGI,[24],57.3 µM
same,GI50,[25],> 42.8 µM
same,TGI,[25],> 62.5 µM
same,GI50,[26],22.3 µM
same,TGI,[26],> 65.5 µM
same,GI50,[27],22.5 µM
same,TGI,[27],> 60.6 µM
same,GI50,[28],26.3 µM
same,TGI,[28],> 65.4 µM
same,GI50,[29],36.3 µM
same,TGI,[29],> 100 µM
same,GI50,[30],3 µM
same,TGI,[30],25.8 µM
same,GI50,[31],14.7 µM
same,TGI,[31],32.3 µM
same,GI50,[32],3.66 µM
same,TGI,[32],21.6 µM
same,GI50,[33],20.1 µM
same,TGI,[33],42.9 µM
same,GI50,[34],> 49 µM
same,TGI,[34],> 87.8 µM
same,GI50,[35],23.1 µM
same,TGI,[35],> 61.4 µM
same,GI50,[36],23.9 µM
same,TGI,[36],64.9 µM
same,GI50,[37],36.3 µM
same,TGI,[37],> 100 µM
same,GI50,[38],15.6 µM
same,TGI,[38],34.5 µM
same,GI50,[39],18.2 µM
same,TGI,[39],38.5 µM
same,GI50,[40],13.2 µM
same,TGI,[40],26.5 µM
same,GI50,[41],20.9 µM
same,TGI,[41],44 µM
same,GI50,[42],21 µM
same,TGI,[42],57.6 µM
same,GI50,[43],29.5 µM
same,TGI,[43],90.1 µM
same,GI50,[44],19 µM
same,TGI,[44],41.8 µM
same,GI50,[45],> 44.7 µM
same,TGI,[45],> 63.6 µM
same,GI50,[46],36.4 µM
same,TGI,[46],> 100 µM
same,GI50,[47],19.2 µM
same,TGI,[47],36.4 µM
same,GI50,[48],20.4 µM
same,TGI,[48],59.1 µM
same,GI50,[49],25 µM
same,TGI,[49],51 µM
same,GI50,[50],41.6 µM
same,TGI,[50],> 100 µM
same,GI50,[51],23.6 µM
same,TGI,[51],45.9 µM
same,GI50,[52],15.4 µM
same,TGI,[52],32.4 µM
same,GI50,[53],16 µM
same,TGI,[53],41.7 µM
same,GI50,[54],17.7 µM
same,TGI,[54],38.7 µM
same,GI50,[55],> 41.3 µM
same,TGI,[55],> 57.1 µM
CCCCCn1c(C)cc(/C=C\c2ccc3cc(C)ccc3[n+]2C)c1C,GI50,[1],0.241 µM
same,TGI,[1],1.06 µM
same,GI50,[2],0.0557 µM
same,TGI,[2],0.97 µM
same,GI50,[3],0.212 µM
same,TGI,[3],0.502 µM
same,GI50,[4],0.0414 µM
same,TGI,[4],1.1 µM
same,GI50,[5],0.275 µM
same,TGI,[5],2.43 µM
same,GI50,[6],0.0586 µM
same,TGI,[6],1.3 µM
same,GI50,[7],0.124 µM
same,TGI,[7],0.853 µM
same,GI50,[8],0.0354 µM
same,TGI,[8],0.601 µM
same,GI50,[9],0.367 µM
same,TGI,[9],1.45 µM
same,GI50,[10],0.0343 µM
same,TGI,[10],1.09 µM
same,GI50,[12],0.0683 µM
same,TGI,[12],1.51 µM
same,GI50,[13],0.166 µM
same,TGI,[13],1.75 µM
same,GI50,[14],0.313 µM
same,TGI,[14],1.41 µM
same,GI50,[15],0.0769 µM
same,TGI,[15],0.327 µM
same,GI50,[16],0.253 µM
same,TGI,[16],1.38 µM
same,GI50,[18],0.252 µM
same,TGI,[18],1.41 µM
same,GI50,[19],0.339 µM
same,TGI,[19],1.71 µM
same,GI50,[20],0.243 µM
same,TGI,[20],1.1 µM
same,GI50,[22],0.0341 µM
same,TGI,[22],1.11 µM
same,GI50,[23],0.0623 µM
same,TGI,[23],1.03 µM
same,GI50,[24],0.0699 µM
same,TGI,[24],0.664 µM
same,GI50,[25],0.164 µM
same,TGI,[25],0.675 µM
same,GI50,[26],0.199 µM
same,TGI,[26],1.04 µM
same,GI50,[27],0.0951 µM
same,TGI,[27],1.85 µM
same,GI50,[28],0.123 µM
same,TGI,[28],1.51 µM
same,GI50,[30],0.0202 µM
same,TGI,[30],0.322 µM
same,GI50,[56],0.0296 µM
same,TGI,[56],0.128 µM
same,GI50,[31],0.143 µM
same,TGI,[31],1.51 µM
same,GI50,[32],0.109 µM
same,TGI,[32],0.487 µM
same,GI50,[33],2.11 µM
same,TGI,[33],> 34.4 µM
same,GI50,[34],0.0791 µM
same,TGI,[34],0.975 µM
same,GI50,[35],0.0645 µM
same,TGI,[35],1.19 µM
same,GI50,[37],0.0299 µM
same,TGI,[37],0.751 µM
same,GI50,[38],0.329 µM
same,TGI,[38],1.71 µM
same,GI50,[39],0.0345 µM
same,TGI,[39],1.52 µM
same,GI50,[40],0.0801 µM
same,TGI,[40],0.219 µM
same,GI50,[42],0.157 µM
same,TGI,[42],0.89 µM
same,GI50,[43],0.283 µM
same,TGI,[43],0.98 µM
same,GI50,[44],0.0793 µM
same,TGI,[44],0.911 µM
same,GI50,[45],0.0982 µM
same,TGI,[45],0.595 µM
same,GI50,[46],0.0386 µM
same,TGI,[46],1.11 µM
same,GI50,[47],0.239 µM
same,TGI,[47],1.15 µM
same,GI50,[48],0.113 µM
same,TGI,[48],0.839 µM
same,GI50,[49],0.219 µM
same,TGI,[49],1.17 µM
same,GI50,[53],0.49 µM
same,TGI,[53],1.9 µM
same,GI50,[54],0.0836 µM
same,TGI,[54],1.21 µM
same,GI50,[55],0.116 µM
same,TGI,[55],1.09 µM
